The text below walks through data of patent US4225593A, “Growth promotion” (Imperial Chemical Industries Limited, priority 1977, dated 1980).

One data set relates to rumen fluid. Description: Inhibition of methane production and shift of volatile fatty acids in incubated rumen fluid (in vitro fermentation of hay). More on the design: species or system steers. The following applies: for % methane in total gas: 39° C., 15-16 hours, control 8.37; for Ac/Bu: acetate/butyrate, control 3.92; for Ac/Pr: acetate/propionate, control 1.90; for % inhibition of methane / Ac/Bu, expressed as percentage of untreated controls / Ac/Pr, expressed as percentage of untreated controls: relative to untreated controls; for Ac/Bu, expressed as percentage of untreated controls / Ac/Pr, expressed as percentage of untreated controls: signed values. As to the method: Rumen fluid is collected on a regular routine basis from two steers, which are fed on the same hay-plus-concentrate diet. Sampling time is standarised as far as possible, and the fluid from the two animals is pooled on a 50/50 basis. Large particulate matter is removed by filtering the pooled fluid through four layers of muslin cloth. The filtrate is then diluted in the ratio of one volume of filtrate to three volumes of an artificial rumen fluid (prepared as described by G. L. Bales et al., Journal of Diary Science, 1976, volume 59, page 1850, but omitting acetic acid), and the pH of the mixture is adjusted to 6.9-7.0 with saturated aqueous sodium carbonate solution. Aliquots (50 ml.) of this mixture are dispensed into 100 ml. conical flasks containing dried ground hay (0.5 g.), and each flask is used to test a test compound at a particular concentration.
The test compound is added to the conical flask as a solution in ethanol, the flask is flushed with carbon dioxide gas, stoppered with a suba-seal, and incubated at 39° C. for 15-16 hours. After one hour, a narrow bore needle is inserted through the suba-seal to relieve the gas pressure, and the needle is withdrawn 30 minutes before the incubation is ended. Fermentation is then stopped by placing the flask in ice, and after 15 minutes cooling, the gas over the liquid is analysed for methane by gas chromatrography. The flask contents are then filtered through a previously dried and weighed sintered glass funnel, the funnel is oven-dried and, by difference, the weight of hay digested is determined. (Blank flasks containing no hay are treated similarly to determine non-cellulose residue). Three samples of the filtrate are analysed by gas chromatography for VFAs, and by comparison with the previously determined, pre-incubationlevel of VFAs, the net VFAs (acetate, propionate and butyrate) produced during the incubation is determined.
The test process described in Example 2 was repeated, comparing aplasmomycin with Factor B and C. The following results were obtained, expressed as percentages of the values obtained in untreated controls: […]

Data set [1] deals with rumen metabolism of sheep. Briefly: Short term effects on the rumen metabolism of sheep (rumen V.F.A. composition). Particulars: 6 hours after treatment. The data set is classed as in vivo. The procedure: The rumen fermentation patterns of a group of sheep were stabilised by feeding them a standard diet of dried grass (2×500 g. per day) for some months. Six test animals were used for each inclusion level of each test compound. […] Samples of rumen fluid were collected by stomach tube from each animal 6 hours after treatment, and analysed by gas-chromatography for acetate, propionate and butyrate.

In the next data set the test system is Eimeria tenella. Briefly: Anticoccidial activity: preventing coccidial growth in cultures of chick kidney cells inoculated with sporozites. The data set is classed as cell-based. Particulars: for anticoccidial activity (in words): cultures of chick kidney cells.
A further data set deals with chick kidney cells. Briefly: Toxic effects on the host cells (chick kidney cells) in the anticoccidial test. The data set is classed as cell-based. Particulars: only shows toxic effects at this concentration.
Where [2] appears, read: Day 4, 0.25 mg/kg, control 10.2.
[3] abbreviates: Day 4, 0.25 mg/kg, control 24.0.
[4] abbreviates: Day 4, 0.25 mg/kg, control 64.5.
Where [5] appears, read: Day 7, 0.25 mg/kg, control 10.7.
The mark [6] stands for this setting: Day 7, 0.25 mg/kg, control 22.9.
[7] abbreviates: Day 7, 0.25 mg/kg, control 65.6.

In the case of `C[C@@H]1CC[C@@H]2O[C@]13O[B-]14O[C@H]3C(=O)O[C@H]3C[C@@H](/C=C/C[C@@H](O)C(C)(C)[C@@H]5CC[C@@H](C)[C@](O5)(O1)[C@@H](O4)C(=O)O[C@H]1C[C@@H](/C=C/C[C@@H](O)C2(C)C)O[C@@H]1C)O[C@@H]3C.[Na+]` [Aplasmomycin, aplasmomycin], the “% methane in total gas” value in the data set on rumen fluid (0.1 μg./ml.) came to 7.87%; with rumen fluid (0.3 μg./ml.), 5.72%; with rumen fluid (0.5 μg./ml.), 4.87%; with rumen fluid (1 μg./ml.) it was 3.81%; in the data set with rumen fluid (3 μg./ml.), 2.58%. Further, the Ac/Bu is 4.22 with rumen fluid (0.1 μg./ml.); 4.75 in the data set with rumen fluid (0.3 μg./ml.); 4.56 in the data set with rumen fluid (0.5 μg./ml.); 4.26 in the data set on rumen fluid (1 μg./ml.); 3.52 in the data set with rumen fluid (3 μg./ml.). Moreover, the Ac/Pr with rumen fluid (0.1 μg./ml.) is reported as 1.63; in the data set on rumen fluid (0.3 μg./ml.), 1.36; in the data set with rumen fluid (0.5 μg./ml.), 1.29; with rumen fluid (1 μg./ml.), 1.26; with rumen fluid (3 μg./ml.), 1.34. The “% inhibition of methane” value in the data set with rumen fluid (1 ppm) is listed as 57%; in the data set with rumen fluid (3 ppm), 69%. The “Ac/Bu, expressed as percentage of untreated controls” value (from here on “Ac/Bu, expressed as percentage”) was -36 percentages in the data set with rumen fluid (1 ppm) and -49 percentages in the data set on rumen fluid (3 ppm). Besides, the “Ac/Pr, expressed as percentage of untreated controls” value (“Ac/Pr, expressed as percentage” below) in the data set on rumen fluid (1 ppm) was -41 percentages; in the data set with rumen fluid (3 ppm), -40 percentages. The “effect on the overall digestive process (in words)” value in the data set on rumen fluid (rumen fluid, weight of hay digested) is given as “without at the same time depressing the overall digestive process”. For the same compound, the “Molar % rumen V.F.A.: Butyrate” value in data set [1] (setting [2]) is 9.8 Molar %; in data set [1] (Day 4, 0.5 mg/kg, control 10.2), 9.9 Molar %; in data set [1] (setting [5]) it was 9.9 Molar %; in data set [1] (Day 7, 0.5 mg/kg, control 10.7), 9.2 Molar %. In addition, the “Molar % rumen V.F.A.: Propionate” value in data set [1] (setting [3]) worked out at 25.1 Molar %; in data set [1] (Day 4, 0.5 mg/kg, control 24.0), 25.5 Molar %; in data set [1] (setting [6]), 24.8 Molar %; in data set [1] (Day 7, 0.5 mg/kg, control 22.9) it was 26.6 Molar %. In addition, the “Molar % rumen V.F.A.: Acetate” value in data set [1] (setting [4]) stood at 63.7 Molar %; in data set [1] (Day 4, 0.5 mg/kg, control 64.5) it was 63.4 Molar %; in data set [1] (setting [7]) it was 63.8 Molar %; in data set [1] (Day 7, 0.5 mg/kg, control 65.6) it was 62.6 Molar %. Further, the “anticoccidial activity (in words)” value in the data set with Eimeria tenella is recorded as “show anticoccidial activity”. The “concentration showing activity against Eimeria tenella” value with Eimeria tenella (cultures of chick kidney cells inoculated with sporozites) was determined as 0.037 ppm. Further, in the data set on chick kidney cells, the “concentration showing toxic effects on the host cells” value was 9 ppm.

As to `CC[C@@]1([C@@H]2O[C@@H]([C@H]3O[C@@](O)(CO)[C@H](C)C[C@@H]3C)C[C@@H]2C)CC[C@H]([C@]2(C)CC[C@]3(C[C@H](O)[C@@H](C)[C@@H]([C@@H](C)[C@@H](OC)[C@H](C)C(=O)O)O3)O2)O1` [Monensin, monensin, reference compound], the “% methane in total gas” value amounted to 8.35% in the data set with rumen fluid (0.1 μg./ml.); 7.53% in the data set on rumen fluid (0.3 μg./ml.); 6.75% with rumen fluid (0.5 μg./ml.); 5.62% with rumen fluid (1 μg./ml.); 4.53% in the data set with rumen fluid (3 μg./ml.). Further, the Ac/Bu in the data set with rumen fluid (0.1 μg./ml.) came out at 4.22; in the data set on rumen fluid (0.3 μg./ml.), 4.11; with rumen fluid (0.5 μg./ml.) it was 4.03; in the data set with rumen fluid (1 μg./ml.), 3.21; in the data set with rumen fluid (3 μg./ml.) it was 3.39. In addition, the Ac/Pr in the data set with rumen fluid (0.1 μg./ml.) was 1.80; with rumen fluid (0.3 μg./ml.) it was 1.65; in the data set with rumen fluid (0.5 μg./ml.), 1.61; in the data set with rumen fluid (1 μg./ml.), 1.51; in the data set on rumen fluid (3 μg./ml.), 1.54. For the same compound, the “Molar % rumen V.F.A.: Butyrate” value in data set [1] (setting [2]) turned out to be 9.9 Molar %; in data set [1] (Day 4, 0.5 mg/kg, control 10.2), 11.3 Molar %; in data set [1] (setting [5]), 11.4 Molar %; in data set [1] (Day 7, 0.5 mg/kg, control 10.7), 12.6 Molar %. The “Molar % rumen V.F.A.: Propionate” value is 28.5 Molar % in data set [1] (setting [3]); 27.8 Molar % in data set [1] (Day 4, 0.5 mg/kg, control 24.0); 26.1 Molar % in data set [1] (setting [6]); 26.2 Molar % in data set [1] (Day 7, 0.5 mg/kg, control 22.9). The “Molar % rumen V.F.A.: Acetate” value is given as 60.5 Molar % in data set [1] (setting [4]); 59.8 Molar % in data set [1] (Day 4, 0.5 mg/kg, control 64.5); 60.2 Molar % in data set [1] (Day 7, 0.5 mg/kg, control 65.6).

On to `CC(=O)OC1C/C=C/C2CC(OC(=O)C3O[B-]45OC(C(=O)OC6CC(/C=C/CC(O)C(C)(C)C7CCC(C)C3(O7)O4)OC6C)C3(OC(CCC3C)C1(C)C)O5)C(C)O2` (centres unmarked) [Factor B], for which the figures for the “% inhibition of methane” value in the data set on rumen fluid (1 ppm) and in the data set on rumen fluid (3 ppm) were 63% and 76%, respectively. In addition, the “Ac/Bu, expressed as percentage” value with rumen fluid (1 ppm) is listed as “+21 percentages”; with rumen fluid (3 ppm), -18 percentages. Also, the “Ac/Pr, expressed as percentage” value was -48 percentages in the data set on rumen fluid (1 ppm) and -45 percentages with rumen fluid (3 ppm). Moreover, the “Molar % rumen V.F.A.: Butyrate” value stood at 11.3 Molar % in data set [1] (setting [2]); 11.3 Molar % in data set [1] (Day 4, 0.5 mg/kg, control 10.2); 11.7 Molar % in data set [1] (setting [5]); 8.9 Molar % in data set [1] (Day 7, 0.5 mg/kg, control 10.7). Moreover, the “Molar % rumen V.F.A.: Propionate” value in data set [1] (setting [3]) is listed as 22.3 Molar %; in data set [1] (Day 4, 0.5 mg/kg, control 24.0), 22.4 Molar %; in data set [1] (setting [6]), 22.1 Molar %; in data set [1] (Day 7, 0.5 mg/kg, control 22.9), 25.9 Molar %. Besides, the “Molar % rumen V.F.A.: Acetate” value is 65.1 Molar % in data set [1] (setting [4]); 65.0 Molar % in data set [1] (Day 4, 0.5 mg/kg, control 64.5); 63.5 Molar % in data set [1] (setting [7]); 63.5 Molar % in data set [1] (Day 7, 0.5 mg/kg, control 65.6). For the same compound, the “anticoccidial activity (in words)” value with Eimeria tenella is “show anticoccidial activity”.

`CC(=O)OC1C/C=C/C2CC(OC(=O)C3O[B-]45OC(C(=O)OC6CC(/C=C/CC(OC(C)=O)C(C)(C)C7CCC(C)C3(O7)O4)OC6C)C3(OC(CCC3C)C1(C)C)O5)C(C)O2` (centres unmarked) [Factor C]: in the data set with rumen fluid (1 ppm), the “% inhibition of methane” value worked out at 15%; the “Ac/Bu, expressed as percentage” value is on record as “+18 percentages”; the “Ac/Pr, expressed as percentage” value is on record as -33 percentages. For the same compound, in the data set on rumen fluid (3 ppm), the “% inhibition of methane” value came to 44%; the “Ac/Bu, expressed as percentage” value is “+22 percentages”; the “Ac/Pr, expressed as percentage” value was -41 percentages. Also, in the data set on Eimeria tenella, the “anticoccidial activity (in words)” value is recorded as “show anticoccidial activity”.
